According to US20110039721A1, “METHOD FOR PREDICTION ABOUT CARCINOGENICITY OF SUBSTANCE IN RODENT” (Chemicals Evaluation and Research Institute, priority 2007, published 2011):
Like-named read-outs stand apart in the source and are kept apart here.

Legend:
[1] = test system: mRNA expressed from the genes (A) to (D) in rat liver; experiment: Behavior of genes (mRNA expression level, oligo-DNA microarray) in rat liver after 28-day oral administration; type: in vivo; conditions: for Behavior of gene caused by administration of chemical substance, Gene No. 4846 / Behavior of gene caused by administration of chemical substance, Gene No. 2026 / Behavior of gene caused by administration of chemical substance, Gene No. 4218 / Behavior of gene caused by administration of chemical substance, Gene No. 6182 / Behavior of gene caused by administration of chemical substance, Gene No. 5600: gene group (A); for Behavior of gene caused by administration of chemical substance, Gene No. 4846: Unigene No. Rn.144554; for Behavior of gene caused by administration of chemical substance, Gene No. 2026 / Behavior of gene caused by administration of chemical substance, Gene No. 4218: Unigene No. Rn.167075; for Behavior of gene caused by administration of chemical substance, Gene No. 6182: Unigene No. Rn.5834; for Behavior of gene caused by administration of chemical substance, Gene No. 5600: Unigene No. Rn.9836; for Behavior of gene caused by administration of chemical substance, Gene No. 1494 / Behavior of gene caused by administration of chemical substance, Gene No. 2045 / Behavior of gene caused by administration of chemical substance, Gene No. 2203: gene group (B); for Behavior of gene caused by administration of chemical substance, Gene No. 1494: Unigene No. Rn.1430; for Behavior of gene caused by administration of chemical substance, Gene No. 2045: Unigene No. Rn.19329; for Behavior of gene caused by administration of chemical substance, Gene No. 2203: Unigene No. Rn.21240; for Behavior of gene caused by administration of chemical substance, Gene No. 533 / Behavior of gene caused by administration of chemical substance, Gene No. 725 / Behavior of gene caused by administration of chemical substance, Gene No. 1163 / Behavior of gene caused by administration of chemical substance, Gene No. 4973 / Behavior of gene caused by administration of chemical substance, Gene No. 4095 / Behavior of gene caused by administration of chemical substance, Gene No. 1334 / Behavior of gene caused by administration of chemical substance, Gene No. 6620 / Behavior of gene caused by administration of chemical substance, Gene No. 6303 / Behavior of gene caused by administration of chemical substance, Gene No. 5878 / Behavior of gene caused by administration of chemical substance, Gene No. 1131 / Behavior of gene caused by administration of chemical substance, Gene No. 1562 / Behavior of gene caused by administration of chemical substance, Gene No. 1741 / Behavior of gene caused by administration of chemical substance, Gene No. 893 / Behavior of gene caused by administration of chemical substance, Gene No. 6026 / Behavior of gene caused by administration of chemical substance, Gene No. 154 / Behavior of gene caused by administration of chemical substance, Gene No. 1993 / Behavior of gene caused by administration of chemical substance, Gene No. 813 / Behavior of gene caused by administration of chemical substance, Gene No. 2494 / Behavior of gene caused by administration of chemical substance, Gene No. 2546 / Behavior of gene caused by administration of chemical substance, Gene No. 3776 / Behavior of gene caused by administration of chemical substance, Gene No. 3929 / Behavior of gene caused by administration of chemical substance, Gene No. 1119 / Behavior of gene caused by administration of chemical substance, Gene No. 6742 / Behavior of gene caused by administration of chemical substance, Gene No. 5634: gene group (C); for Behavior of gene caused by administration of chemical substance, Gene No. 533: Unigene No. Rn.106184; for Behavior of gene caused by administration of chemical substance, Gene No. 725: Unigene No. Rn.108075; for Behavior of gene caused by administration of chemical substance, Gene No. 1163: Unigene No. Rn.11766; for Behavior of gene caused by administration of chemical substance, Gene No. 4973: Unigene No. Rn.118529; for Behavior of gene caused by administration of chemical substance, Gene No. 4095: Unigene No. Rn.119024; for Behavior of gene caused by administration of chemical substance, Gene No. 1334 / Behavior of gene caused by administration of chemical substance, Gene No. 6620: Unigene No. Rn.120914; for Behavior of gene caused by administration of chemical substance, Gene No. 6303: Unigene No. Rn.123063; for Behavior of gene caused by administration of chemical substance, Gene No. 5878: Unigene No. Rn.143213; for Behavior of gene caused by administration of chemical substance, Gene No. 1131: Unigene No. Rn.144946; for Behavior of gene caused by administration of chemical substance, Gene No. 1562: Unigene No. Rn.14744; for Behavior of gene caused by administration of chemical substance, Gene No. 1741: Unigene No. Rn.1647; for Behavior of gene caused by administration of chemical substance, Gene No. 893: Unigene No. Rn.164817; for Behavior of gene caused by administration of chemical substance, Gene No. 6026: Unigene No. Rn.167685; for Behavior of gene caused by administration of chemical substance, Gene No. 154: Unigene No. Rn.185941; for Behavior of gene caused by administration of chemical substance, Gene No. 1993: Unigene No. Rn.18728; for Behavior of gene caused by administration of chemical substance, Gene No. 813: Unigene No. Rn.201760; for Behavior of gene caused by administration of chemical substance, Gene No. 2494: Unigene No. Rn.23969; for Behavior of gene caused by administration of chemical substance, Gene No. 2546: Unigene No. Rn.24561; for Behavior of gene caused by administration of chemical substance, Gene No. 3776: Unigene No. Rn.43232; for Behavior of gene caused by administration of chemical substance, Gene No. 3929: Unigene No. Rn.4620; for Behavior of gene caused by administration of chemical substance, Gene No. 1119: Unigene No. Rn.9757; for Behavior of gene caused by administration of chemical substance, Gene No. 6742: Unigene No. Rn.9779; for Behavior of gene caused by administration of chemical substance, Gene No. 5634: Unigene No. Rn.9862; for Behavior of gene caused by administration of chemical substance, Gene No. 5726: gene group (D), Unigene No. Rn.9939
Procedure, shortened: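 Liver mRNA levels were compared with matched vehicle groups, with a shift of at least 1.5-fold up or down deemed significant unless its direction disagreed with other carcinogens. Test substances were dosed orally by gavage daily for 28 days to 5-week-old male F344 rats, four per group.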

[2] = classification of the substance (M+/M−); cited from earlier work
rodent = conditions: classification of the substance (C+/C−); cited from earlier work
liver = conditions: cited from earlier work
[3] = classification of the substance (Cr+/Cr−)

Structure (SMILES)	Behavior of gene caused by administration of chemical substance, Gene No. 4846 [1]	Behavior of gene caused by administration of chemical substance, Gene No. 2026 [1]	Behavior of gene caused by administration of chemical substance, Gene No. 4218 [1]	Behavior of gene caused by administration of chemical substance, Gene No. 6182 [1]	Behavior of gene caused by administration of chemical substance, Gene No. 5600 [1]	Behavior of gene caused by administration of chemical substance, Gene No. 1494 [1]	Behavior of gene caused by administration of chemical substance, Gene No. 2045 [1]	Behavior of gene caused by administration of chemical substance, Gene No. 2203 [1]	Behavior of gene caused by administration of chemical substance, Gene No. 533 [1]	Behavior of gene caused by administration of chemical substance, Gene No. 725 [1]	Behavior of gene caused by administration of chemical substance, Gene No. 1163 [1]	Behavior of gene caused by administration of chemical substance, Gene No. 4973 [1]	Behavior of gene caused by administration of chemical substance, Gene No. 4095 [1]	Behavior of gene caused by administration of chemical substance, Gene No. 1334 [1]	Behavior of gene caused by administration of chemical substance, Gene No. 6620 [1]	Behavior of gene caused by administration of chemical substance, Gene No. 6303 [1]	Behavior of gene caused by administration of chemical substance, Gene No. 5878 [1]	Behavior of gene caused by administration of chemical substance, Gene No. 1131 [1]	Behavior of gene caused by administration of chemical substance, Gene No. 1562 [1]	Behavior of gene caused by administration of chemical substance, Gene No. 1741 [1]	further results
Nc1ccc([N+](=O)[O-])cc1N [TS035, 4-Nitro-o-phenylenediamine]	−	+	−	−	−	+	−	−	+	+	+	−	−	+	+	+	−	−	−	+	Behavior of gene caused by administration of chemical substance, Gene No. 893 [1]: −; Behavior of gene caused by administration of chemical substance, Gene No. 6026 [1]: −; Behavior of gene caused by administration of chemical substance, Gene No. 154 [1]: −; Behavior of gene caused by administration of chemical substance, Gene No. 1993 [1]: +; Behavior of gene caused by administration of chemical substance, Gene No. 813 [1]: +; Behavior of gene caused by administration of chemical substance, Gene No. 2494 [1]: −; Behavior of gene caused by administration of chemical substance, Gene No. 2546 [1]: +; Behavior of gene caused by administration of chemical substance, Gene No. 3776 [1]: −; Behavior of gene caused by administration of chemical substance, Gene No. 3929 [1]: −; Behavior of gene caused by administration of chemical substance, Gene No. 1119 [1]: −; Behavior of gene caused by administration of chemical substance, Gene No. 6742 [1]: −; Behavior of gene caused by administration of chemical substance, Gene No. 5634 [1]: +; Behavior of gene caused by administration of chemical substance, Gene No. 5726 [1]: −; Mutagenicity by Ames test [2]: M+; Carcinogenicity (rodent): C−; Liver carcinogenicity (liver; in vivo): Cr−
O=c1c(O)c(-c2ccc(O)c(O)c2)oc2cc(O)cc(O)c12 [TS037, Quercetin]	−	−	−	−	−	−	−	−	−	−	−	−	−	−	−	−	−	−	−	−	Behavior of gene caused by administration of chemical substance, Gene No. 893 [1]: −; Behavior of gene caused by administration of chemical substance, Gene No. 6026 [1]: −; Behavior of gene caused by administration of chemical substance, Gene No. 154 [1]: −; Behavior of gene caused by administration of chemical substance, Gene No. 1993 [1]: −; Behavior of gene caused by administration of chemical substance, Gene No. 813 [1]: −; Behavior of gene caused by administration of chemical substance, Gene No. 2494 [1]: −; Behavior of gene caused by administration of chemical substance, Gene No. 2546 [1]: −; Behavior of gene caused by administration of chemical substance, Gene No. 3776 [1]: −; Behavior of gene caused by administration of chemical substance, Gene No. 3929 [1]: −; Behavior of gene caused by administration of chemical substance, Gene No. 1119 [1]: −; Behavior of gene caused by administration of chemical substance, Gene No. 6742 [1]: −; Behavior of gene caused by administration of chemical substance, Gene No. 5634 [1]: −; Behavior of gene caused by administration of chemical substance, Gene No. 5726 [1]: −; Mutagenicity by Ames test [2]: M+; Carcinogenicity (rodent): C−; Liver carcinogenicity (liver; [3]): Cr−
IC(I)I [TS039, Iodoform]	−	−	−	−	−	+	−	−	−	−	−	−	−	+	+	+	−	−	−	+	Behavior of gene caused by administration of chemical substance, Gene No. 893 [1]: +; Behavior of gene caused by administration of chemical substance, Gene No. 6026 [1]: −; Behavior of gene caused by administration of chemical substance, Gene No. 154 [1]: +; Behavior of gene caused by administration of chemical substance, Gene No. 1993 [1]: −; Behavior of gene caused by administration of chemical substance, Gene No. 813 [1]: −; Behavior of gene caused by administration of chemical substance, Gene No. 2494 [1]: −; Behavior of gene caused by administration of chemical substance, Gene No. 2546 [1]: −; Behavior of gene caused by administration of chemical substance, Gene No. 3776 [1]: −; Behavior of gene caused by administration of chemical substance, Gene No. 3929 [1]: −; Behavior of gene caused by administration of chemical substance, Gene No. 1119 [1]: −; Behavior of gene caused by administration of chemical substance, Gene No. 6742 [1]: +; Behavior of gene caused by administration of chemical substance, Gene No. 5634 [1]: +; Behavior of gene caused by administration of chemical substance, Gene No. 5726 [1]: −; Mutagenicity by Ames test [2]: M+; Carcinogenicity (rodent): C−; Liver carcinogenicity (liver; [3]): Cr−
